Columns and labels:
[1] = system: H1299 human NSCLC xenograft; test: H1299 NSCLC xenograft tumor growth delay; settings: for tumor-free survival (TFS): CRLX101 10 mg/kg qwk×3, marketed drugs on optimal preclinical regimens; for median tumor volume (MTV) of survivors: D74 survivors, Gemcitabine 120 mg/kg
Method: H1299 cells were obtained from the American Type Culture Collection (ATCC), and the tumor line was maintained by serial engraftment in nude mice.
Body weight was measured daily on Days 1-5, then twice weekly until the completion of the study. Tumor volume was measured twice weekly and each animal was euthanized when the calculated tumor volume reached the 2000 mm^3 endpoint, or on day-88 post implantation, whichever came first.

[2] = system: A2780 Ovarian Xenograft Tumors; test: A2780 ovarian xenograft tumor growth / response rate; format: in vivo, mouse; settings: A2780, Day 42; CRLX101 5 mg/kg IV q7d×3; Bevacizumab 5 mg/kg i.p. biweekly×3; combination at same doses
HIF-1α = HIF-1α levels in A2780 xenograft after CRLX101 and Bevacizumab (Western blot); format: in vivo, mouse; settings: CRLX101 5 mg/kg i.v. q7d×2, Bevacizumab 5 mg/kg i.p. Day 1, 4, 8, tumors Day 11
Method: (§1) Tumor samples were collected on Day 11, 72 hours after the last treatment (Day 8 for both drugs) and analyzed for HIF-1α and HIF-2α levels using Western blot.

HIF-2α = HIF-2α levels in A2780 xenograft after CRLX101 and Bevacizumab (Western blot); format: in vivo, mouse; settings: CRLX101 5 mg/kg i.v. q7d×2, Bevacizumab 5 mg/kg i.p. Day 1, 4, 8, tumors Day 11
Method: as §1

## Nc1ccn([C@@H]2O[C@H](CO)[C@@H](O)C2(F)F)c(=O)n1 [Gemcitabine]
[1]; 74 days post first treatment
  tumor-free survival (TFS): 50%
[1]; Docetaxel 30 mg/kg
  median tumor volume (MTV) of survivors: 0 mm3

## CC[C@@]1(O)C(=O)OCc2c1cc1n(c2=O)Cc2cc3c(CN(C)C)c(O)ccc3nc2-1 [Topotecan]
[1]; 74 days post first treatment
  tumor-free survival (TFS): 10%

## Bevacizumab: antibody against VEGF
[2]
  Partial Response (# of mice): 0 of 10
HIF-1α
  HIF-1α % of Control: 157 % of Control
HIF-2α
  HIF-2α % of Control: 146 % of Control

## CC(=O)O[C@@]12CO[C@@H]1C[C@H](O)[C@@]1(C)C(=O)[C@H](O)C3=C(C)[C@@H](OC(=O)[C@H](O)[C@@H](NC(=O)OC(C)(C)C)c4ccccc4)C[C@@](O)([C@@H](OC(=O)c4ccccc4)[C@H]21)C3(C)C [Docetaxel]
[1]; 74 days post first treatment, docetaxel 30 mg/kg qwk×3
  survival: 20%
[1]; Docetaxel 30 mg/kg
  median tumor volume (MTV) of survivors: 302 mm3
[1]; Docetaxel 30 mg/kg, on D21
  group mean body weight loss: 9.3%

Reference: patent US20140105891A1, “TREATMENT OF CANCER” (CERULEAN PHARMA INC., priority 2012, published 2014)
